Source: PMC11602115 (Journal of Medicinal Chemistry, 2017)
pEC50, pIC50, pKd: −log10 of the molar value. Where two headings read alike, the source gives them in different places.

Tests used:
human platelet = assay: Inhibition of ADP-induced human platelet aggregation; format: cell-based; details: aggregation induced by 2.5 μM ADP, mean of at least two determinations
Experimental: Such aggregated and activated platelets produce vasoactive substances such as thromboxane and serotonin that may cause harmful vasoconstriction and vascular remodeling.[13] […] This secondary assay was carried out as previously described,[14] with aggregation induced by 2.5 μM ADP in the presence or absence of IP receptor agonists.

IP [1] = biological target: T1, IP (Homo sapiens, UniProt P43119); assay: HTRF cAMP assay, recombinant human IP receptor stably expressed in CHO-K1 cells; format: cell-based; set-up: expressed in transfected cells
Experimental: (§1) The new compounds were tested for functional agonist activity in a standard (Cisbio) cAMP assay using recombinant IP or DP1 receptors stably expressed in CHO-K1 cells. Clonal cell lines were derived following standard protocols, but receptor expression levels were kept to a minimum to preclude receptor reserve effects.
(§2) For development of cAMP accumulation assays, recombinant IP or DP1 receptors were stably expressed in CHO-K1 cells and clonal cell lines derived following standard protocols. Receptor expression levels were minimized to preclude receptor reserve effects. HTRF cAMP assays were performed according to the manufacturer’s instructions (Cisbio, cAMP Dynamic 2 assay kit; no. 62AM4PEJ). IP receptor-expressing cells were harvested, resuspended in assay buffer (PBS containing 1 mM IBMX and 0.2% BSA) at a density of 200 000 cells per mL, and dispensed into 384-well assay plates (PerkinElmer Proxiplate no. 6008280) at 5 μL per well. Test compounds were solubilized and serially diluted in DMSO using 5-fold dilutions to generate a 10-point dose–response curve with a top concentration of 10 μM. The samples were then further diluted in PBS to achieve a 2× stock. Diluted compounds were then transferred to a triplicate set of assay plates (5 μL per well). After a 1 h incubation at room temperature, 5 μL of cAMP-D2 reagent diluted in lysis buffer was added to each well followed by 5 μL of cryptate reagent. Plates were then incubated at room temperature for 1 h prior to reading. Time-resolved fluorescence measurements were collected on PerkinElmer Envision or BMG Pherastar microplate readers.

human DP1 receptor = biological target: T2, human DP1 receptor (Homo sapiens, UniProt Q13258); assay: HTRF cAMP assay, recombinant human DP1 receptor in CHO-K1 cells; format: cell-based; details: for Emax: CHO-K1, intrinsic activity relative to 1 μM PGD2, read-out: hDP1 % IA
T2 construct: expressed in transfected cells
T2 sequence (Q13258 1-359): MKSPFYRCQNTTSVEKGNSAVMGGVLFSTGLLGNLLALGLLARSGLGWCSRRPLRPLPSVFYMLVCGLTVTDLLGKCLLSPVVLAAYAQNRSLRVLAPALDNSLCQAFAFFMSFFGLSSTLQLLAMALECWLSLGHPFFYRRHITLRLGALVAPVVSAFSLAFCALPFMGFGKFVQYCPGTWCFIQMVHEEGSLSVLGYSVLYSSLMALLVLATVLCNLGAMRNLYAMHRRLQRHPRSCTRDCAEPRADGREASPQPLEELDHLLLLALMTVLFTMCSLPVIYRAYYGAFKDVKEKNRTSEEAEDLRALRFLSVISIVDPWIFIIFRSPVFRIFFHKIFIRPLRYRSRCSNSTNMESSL
Experimental: as §1, §2

rat IP [2] = biological target: T3, rat IP (Rattus norvegicus, UniProt P43253); assay: HTRF cAMP assay, recombinant rat IP receptor; format: cell-based; set-up: expressed in transfected cells
Experimental: as §1, §2

[3] = Stability in human microsome preparations; format: in vitro ADME; details: incubation at 37 °C, human microsomes; read-out: human MS, T1/2
Excerpt: (§3) Table 1 Screening Data for Selected Analogues ^a | column: human and rat MS, T1/2 (min) ^g

[4] = Stability in rat microsome preparations; format: in vitro ADME; details: incubation at 37 °C, rat microsomes; read-out: rat MS, T1/2
Excerpt: as §3

[5] = tested on: prostaglandin receptors other than DP1; assay: Panel assays of prostaglandin receptors in melanophores; format: cell-based
EP2 = EP2 (Homo sapiens, UniProt P43116); assay: cAMP HTRF agonist assay, EP2; format: cell-based; details: cAMP HTRF agonist assay
Excerpt: (§4) Table Sup2: Data with some comparator compounds in functional assays. […]

EP3v6 = biological target: T4, EP3v6 (Homo sapiens, UniProt P43115); assay: Melanophore dispersion assay, EP3v6; format: cell-based; set-up: expressed in transfected cells; host or cells: melanophores (transient, electroporation); details: melanophore dispersion assay (Gi)
T4 sequence (P43115 1-374 isoform P43115-4): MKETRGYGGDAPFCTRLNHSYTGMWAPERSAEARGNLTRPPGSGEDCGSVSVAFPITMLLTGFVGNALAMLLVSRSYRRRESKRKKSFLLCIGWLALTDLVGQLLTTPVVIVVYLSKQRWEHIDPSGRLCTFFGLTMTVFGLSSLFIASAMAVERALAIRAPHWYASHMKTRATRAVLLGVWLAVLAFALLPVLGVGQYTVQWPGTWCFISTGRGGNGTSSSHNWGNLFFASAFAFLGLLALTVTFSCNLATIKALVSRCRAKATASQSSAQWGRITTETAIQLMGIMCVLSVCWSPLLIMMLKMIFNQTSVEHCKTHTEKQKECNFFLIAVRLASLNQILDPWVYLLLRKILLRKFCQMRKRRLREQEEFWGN
Experimental: For the EP3v6 receptor functional assay, melanophores were transfected by electroporation using 20 μg of recombinant human EP3v6 receptor plasmid DNA per 400 μL of cell suspension. Transfected cells were immediately resuspended in fresh growth medium and plated in 384-well clear, polystyrene microplates. Plated cells were incubated at 27 °C for 48 h after transfection in order to achieve optimal receptor expression. To perform the assay, growth medium was removed from the assay plates and replaced with assay buffer (40 μL/well, 0.7× PBS, pH 7.3, supplemented with 20 nM melatonin to induce pigment aggregation). Following a 90 min incubation at room temperature, a 650 nm absorbance reading was collected and test compounds (10 μL per well) were transferred to the assay plates. Plates were incubated for 90 min at room temperature to allow compound-induced pigment redistribution to take place, and final absorbance reading was then collected. Test compounds were solubilized and serially diluted in DMSO, using 5-fold dilutions, to generate a 10-point dose–response curve with a top concentration of 10 μM (final assay concentration). Samples were then further diluted in assay buffer to achieve a 5× stock prior to addition to the assay plates. A SpectraMax absorbance plate reader (Molecular Devices, Inc.) was used for data collection.
as §4

EP1 = biological target: T5, EP1 (Homo sapiens, UniProt P34995); assay: cAMP HTRF agonist assay, EP1; format: cell-based
T5 sequence (P34995 1-402): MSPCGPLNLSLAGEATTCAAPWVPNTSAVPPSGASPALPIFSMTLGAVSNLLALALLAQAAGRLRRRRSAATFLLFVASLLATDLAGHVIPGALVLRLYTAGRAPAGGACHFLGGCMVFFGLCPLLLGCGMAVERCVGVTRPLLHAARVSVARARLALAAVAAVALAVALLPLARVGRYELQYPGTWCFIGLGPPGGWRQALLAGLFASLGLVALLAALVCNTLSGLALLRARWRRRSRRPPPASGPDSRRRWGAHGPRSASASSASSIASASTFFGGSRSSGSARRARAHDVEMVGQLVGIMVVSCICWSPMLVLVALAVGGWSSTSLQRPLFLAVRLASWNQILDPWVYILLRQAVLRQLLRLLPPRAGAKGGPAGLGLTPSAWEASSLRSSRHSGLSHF
Excerpt: (§5) Table Sup2: Data with some comparator compounds in functional assays.
(§6) Compound DP1 EP1 EP2 EP3v6 EP4
(§7) EC50, µµµµM (% I.A) EC50, µµµµM (% I.A) EC50, µµµµM (% I.A) EC50, µµµµM (% I.A) EC50, µµµµM (% I.A)
(§8) n = 3 n = 2 n = 8 n = 6 n = 6 […]

[6] = tested on: primary human pulmonary arterial smooth muscle cells; assay: HTRF cAMP assay in primary human pulmonary arterial smooth muscle cells; format: cell-based
Experimental: Additional In Vitro Assays […]
Compounds were also evaluated in HTRF cAMP assays using primary human pulmonary arterial smooth muscle cells (Cell Applications, Inc., #352Kq05a, or ThermoFisher/Gibco, #C0095C) using the same basic assay protocol outlined in the Experimental section. Cells were cultured as recommended by the suppliers, used at low passage and seeded into 384qwell assay plates at a density of 700q900 cell per well

EP4 = EP4 (Homo sapiens, UniProt P35408); assay: cAMP HTRF agonist assay, EP4; format: cell-based; details: cAMP HTRF agonist assay
Excerpt: as §5, §6, §7, §8

IP [7] = biological target: T1, IP; assay: Recombinant human IP receptor cAMP assay after elimination of receptor reserve (transient CHO); format: cell-based; set-up: expressed in transfected cells; details: following elimination of receptor reserve
Excerpt: Additional In Vitro Assays
To determine the potency and efficacy of compounds in cAMP assays in the absence of receptor reserve effects, the cDNA sequence of the human IP receptor was subqcloned into an expression plasmid containing a ubiquitin promoter in place of the more commonly used CMV promoter. The ubiquitin […]
level of receptor expression after transfection into a suitable cell line. This plasmid was transiently transfected into CHO cells using lipofectamine, following standard protocols. The quantity of transfected plasmid DNA was titrated down from 16 µg to 1 ng per transfection using empty vector as carrier DNA.

dog IP = dog IP (Canis lupus familiaris, UniProt A0A8I3MUB8); assay: Radioligand binding, dog IP ([3H]-iloprost); details: radioligand, recombinant receptor membranes; read-out: measured Kd, dog IP
Experimental: (§9) CHO-K1 cells expressing recombinant IP receptors were harvested, washed with ice-cold phosphate buffered saline, pH 7.4 (PBS), and then centrifuged at 48 000g for 20 min at 4 °C. The resulting cell pellet was then resuspended in ice-cold PBS containing 20 mM HEPES, pH 7.4, and 0.1 mM EDTA, homogenized on ice using a Brinkman Polytron, and centrifuged (48 000g for 20 min at 4 °C). This resuspension and centrifugation process was repeated one further time. Crude membrane pellets were stored at −80 °C until used for radioligand binding assays.
(§10) Assay incubations were terminated by rapid filtration through PerkinElmer GF/C filtration plates pretreated with 0.3% PEI, under vacuum pressure using a 96-well Packard filtration apparatus, followed by multiple washes with ice-cold wash buffer (PBS containing 20 mM HEPES and 0.1 mM EDTA, pH 7.4). Plates were then dried at 45 °C for a minimum of 2 h. Finally, 25 μL of BetaScint scintillation cocktail was added to each well and plates were counted in a Packard TopCount scintillation counter. In each competition study, test compounds were dosed at 10 concentrations with triplicate determinations at each test concentration. A reference compound, typically iloprost, was included in every runset for quality control purposes.

rat IP [8] = biological target: T3, rat IP; assay: Radioligand binding, rat IP ([3H]-iloprost); set-up: expressed in transfected cells; host or cells: CHO-K1 (crude membranes); details: radioligand, recombinant receptor membranes; read-out: measured Kd, rat IP
Experimental: as §9, §10

monkey IP = assay: Radioligand binding, monkey IP ([3H]-iloprost); details: radioligand, recombinant receptor membranes; read-out: measured Kd, monkey IP
Experimental: as §9
as §10, with “concentration.” for “concentration. A reference compound, typically iloprost, was included in every runset for quality control purposes.”

[9] = HTRF (cAMP) human IP receptor assay; mean of at least three determinations
[10] = HTRF (cAMP) human DP1 receptor assay, mean of at least three determinations, read-out: EC50 hDP1

T3 sequence (P43253 whole entry): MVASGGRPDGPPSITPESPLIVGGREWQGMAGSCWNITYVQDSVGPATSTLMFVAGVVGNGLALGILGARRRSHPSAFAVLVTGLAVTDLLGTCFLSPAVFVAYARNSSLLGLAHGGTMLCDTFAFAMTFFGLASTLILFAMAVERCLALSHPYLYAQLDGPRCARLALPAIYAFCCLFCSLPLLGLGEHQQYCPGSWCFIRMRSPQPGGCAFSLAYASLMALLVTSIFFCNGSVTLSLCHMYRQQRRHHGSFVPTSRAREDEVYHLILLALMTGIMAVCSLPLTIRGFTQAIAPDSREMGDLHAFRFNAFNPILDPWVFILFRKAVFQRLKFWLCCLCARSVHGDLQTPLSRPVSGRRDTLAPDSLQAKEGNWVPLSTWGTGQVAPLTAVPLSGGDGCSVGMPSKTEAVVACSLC
T1 sequence (P43119 whole entry): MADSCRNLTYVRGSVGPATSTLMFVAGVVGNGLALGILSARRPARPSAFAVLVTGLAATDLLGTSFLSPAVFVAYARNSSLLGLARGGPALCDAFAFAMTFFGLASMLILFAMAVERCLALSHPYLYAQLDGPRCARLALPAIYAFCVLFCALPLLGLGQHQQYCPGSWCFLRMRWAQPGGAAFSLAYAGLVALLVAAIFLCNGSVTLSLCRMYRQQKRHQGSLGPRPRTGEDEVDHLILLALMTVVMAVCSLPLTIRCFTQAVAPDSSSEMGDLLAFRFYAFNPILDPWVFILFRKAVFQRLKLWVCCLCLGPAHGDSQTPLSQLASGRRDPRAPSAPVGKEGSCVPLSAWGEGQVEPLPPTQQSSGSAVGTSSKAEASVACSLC
Sequence of EP2 (P43116 whole entry): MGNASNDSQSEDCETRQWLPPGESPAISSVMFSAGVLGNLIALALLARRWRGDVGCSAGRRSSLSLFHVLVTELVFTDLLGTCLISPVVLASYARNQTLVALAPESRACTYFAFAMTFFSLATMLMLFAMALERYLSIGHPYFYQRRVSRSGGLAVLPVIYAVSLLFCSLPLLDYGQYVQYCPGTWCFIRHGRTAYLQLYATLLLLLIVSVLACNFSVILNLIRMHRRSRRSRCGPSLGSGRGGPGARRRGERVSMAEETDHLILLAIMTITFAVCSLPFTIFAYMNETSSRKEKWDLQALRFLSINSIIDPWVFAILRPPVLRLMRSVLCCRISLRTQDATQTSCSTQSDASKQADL
Sequence of dog IP (A0A8I3MUB8 1-381): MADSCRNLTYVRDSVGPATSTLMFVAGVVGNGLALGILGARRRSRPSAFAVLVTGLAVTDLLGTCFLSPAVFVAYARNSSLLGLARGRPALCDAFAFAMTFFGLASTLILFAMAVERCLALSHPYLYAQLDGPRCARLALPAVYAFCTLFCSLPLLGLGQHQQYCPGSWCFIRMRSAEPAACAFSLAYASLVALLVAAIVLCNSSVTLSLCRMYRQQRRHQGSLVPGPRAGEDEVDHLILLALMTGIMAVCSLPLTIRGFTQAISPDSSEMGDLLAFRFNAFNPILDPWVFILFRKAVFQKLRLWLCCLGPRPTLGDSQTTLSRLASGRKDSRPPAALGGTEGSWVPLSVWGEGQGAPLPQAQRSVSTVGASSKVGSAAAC
Sequence of EP4 (P35408 whole entry): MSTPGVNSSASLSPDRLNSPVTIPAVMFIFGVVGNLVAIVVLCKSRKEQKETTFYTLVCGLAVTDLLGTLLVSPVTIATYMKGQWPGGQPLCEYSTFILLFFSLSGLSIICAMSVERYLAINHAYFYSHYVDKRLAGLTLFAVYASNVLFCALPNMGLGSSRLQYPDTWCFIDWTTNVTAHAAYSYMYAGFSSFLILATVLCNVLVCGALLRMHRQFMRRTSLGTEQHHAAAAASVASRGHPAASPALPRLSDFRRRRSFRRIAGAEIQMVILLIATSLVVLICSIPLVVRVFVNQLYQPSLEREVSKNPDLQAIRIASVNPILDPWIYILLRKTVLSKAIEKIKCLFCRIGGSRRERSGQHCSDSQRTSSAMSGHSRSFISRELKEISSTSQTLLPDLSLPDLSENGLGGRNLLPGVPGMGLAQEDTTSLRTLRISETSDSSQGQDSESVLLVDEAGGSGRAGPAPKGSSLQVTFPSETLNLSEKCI

Molecule: O=C(O)COC[C@H]1CC[C@H](COC(=O)N(c2ccccc2)c2ccccc2)CC1 [5a, 2-(((1r,4r)-4-((Diphenylcarbamoyloxy)methyl)cyclohexyl)methoxy)acetic Acid]
- pIC50 (human platelet): 7.60
- Emax (IP [1]; CHO-K1; read-out: hIP % IA): 77%
- pEC50 (IP [1]; [9]): 7.68
- Emax (human DP1 receptor): 59%
- pEC50 (human DP1 receptor; [10]): 6.45
- pEC50 (rat IP [2]; HTRF (cAMP) rat IP receptor assay, mean of at least three determinations): 6.44
- Emax (rat IP [2]; read-out: rIP % IA): 89%
- half-life [3]: > 1 h
- half-life [4]: > 1 h
- activity at prostaglandin receptors other than DP1 [5]: no activity

Molecule: CCCCC[C@H](O)/C=C/[C@H]1[C@H](O)CC(=O)[C@@H]1C/C=C\CCCC(=O)O [PGE2]
- pEC50 (human DP1 receptor; cAMP HTRF agonist assay (Gs), Table Sup2, read-out: DP1 EC50): 6.28
- EP2 % I.A (EP2): 84%
- EP3v6 % I.A (EP3v6): 100%
- pEC50 (EP1): 7.29
- EP1 % I.A (EP1): 92%

Molecule: CC(C)N(CCCCOCC(=O)O)c1cnc(-c2ccccc2)c(-c2ccccc2)n1 [compound 2, MRE269]
- pIC50 (human platelet): 6.54
- Emax (IP [1]; CHO-K1, read-out: hIP % IA): 60%
- pEC50 (IP [1]; [9]): 7.66
- Efficacy (% vs. Iloprost) [95% CI], primary human PASMC cAMP [6]: 41 [33, 49] %
- pEC50 ([6]; Homo sapiens, PASMC, n = 8, read-out: EC50 [95% CI], primary human PASMC cAMP): 6.74
- Emax (human DP1 receptor): 80%
- pEC50 (human DP1 receptor; [10]): 6.81
- DP1 % I.A (human DP1 receptor; cAMP HTRF agonist assay (Gs), Table Sup2): 80%
- pEC50 (EP2): < 5.00
- pEC50 (EP4): < 5.00
- Efficacy (% vs. Iloprost) [95% CI], recombinant IP receptor cAMP (IP [7]): 48 [43, 53] %
- pEC50 (IP [7]; n = 9, read-out: EC50 [95% CI], recombinant IP receptor cAMP): 6.82
- pEC50 (EP3v6): < 5.00

Molecule: [^3H]-iloprost [reference compound]
- pKd (dog IP): 7.81
- pKd (rat IP [8]): 8.15
- pKd (monkey IP): 7.92
